45 compounds from PubChem BioAssay (NCI) can be followed below.

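Grown in 96-well plates, cells were treated for 48 hours with each compound at five concentrations. Insufficient inhibition: endpoint recorded as highest concentration tested. At the TGI there is no net growth.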

One assay deals with OVCAR-3 ovarian. Put plainly: growth of human tumour cells (NCI), 48 h.
Take `Clc1ccc(NCc2nnc(CCCCCCCCc3nnc(CNc4ccc(Cl)cc4)o3)o2)cc1`: the TGI was > 100 µM.
As for `O=C(ON=C1c2ccccc2C(Br)C(Br)c2ccccc21)c1cc([N+](=O)[O-])cc([N+](=O)[O-])c1` (stereo unspecified), the TGI came to 35.5 µM.
On the same count and under the same terms, the figure for `Cc1nc2ccccc2n1COC(Cn1ccnc1)c1ccc(Cl)cc1Cl` (stereo unspecified) is > 100 µM; for `Cn1c2ccccc2c2c(-c3ccccc3)cc3c(c21)C(=O)C=CC3=O` it is 4.03 µM; for `Nc1ncnn2c(C3OC(CO)C(O)C3O)ccc12` (stereo unspecified) it is 0.52 µM.
`COCCOC(=O)c1c(C)n([O-])c2cc(Cl)c(Cl)cc2[n+]1=O` returned a TGI of 34.5 µM.
Take `O=C(CC(=O)N(C(=O)/C=C\c1ccccc1)c1ccc(Cl)cc1)N1N=C(c2ccccc2)C(N=Nc2cccc([N+](=O)[O-])c2)C1=O` (stereo unspecified): the TGI is 6.25 µM.
`Cc1cc(=O)[nH]c(-n2[nH]c(C)c(CCO)c2=O)n1`: the TGI was > 100 µM.
For the compound `COc1ccc2[nH]cc(CCNC(=O)[C@H](Cc3ccccc3)NC(=O)[C@@H](NCC(F)(F)F)C(C)C)c2c1`, the TGI was found to be 31.1 µM.
Still for that read-out and setting: for `CCOC(=O)c1cnc2oc3ccc(O)cc3c2c1C` the value was > 100 µM; for `C1=NCCN2CCN(CCN=Cc3ccc(cc3)OCc3cccc(n3)COc3ccc1cc3)CC2`, > 50 µM; for `COC(=O)[C@@H]1CN(C(C)=O)C(=O)N1`, > 100 µM.
Same read-out and setting: the figure for `CCc1n[nH]c(=O)n1/N=C/c1c(O)ccc2ccccc12` is > 100 µM.
On the same count and under the same terms, the figure for `NC(N)=N/N=C/c1c(-c2ccc(Cl)cc2)nc2sccn12` is 3.6 µM.

The next assay concerns CAKI-1 renal. In words: growth of human tumour cells (NCI), 48 h.
The compound `O=C1/C(=C/c2cccc(Br)c2)CCc2ccccc21` came in with a TGI of 30.3 µM.
On the same count and under the same terms, the figure for `CNc1ncnc2c1ncn2C1C=CC(COS(N)(=O)=O)C1` (stereo unspecified) is > 100 µM; for `CCOc1cc(NC(C)=O)ccc1C(=O)NN1C(=O)C(Cl)C1c1ccccc1` (stereo unspecified) it is 30.1 µM.
Same read-out and setting: for `COC1=C(OC)C(=O)C(Cc2c(Cl)nc3sc(C)cn23)=C(C)C1=O` the value was 72.7 µM; for `Cc1ccc(S(=O)(=O)n2cc(-c3cc(C(F)(F)F)ccn3)c3cc(Br)ccc32)cc1`, 38.6 µM.
As to `CCCCCCCCCCCCCCCCCCNc1ccn(C2OC(COP(=O)(O)OCC3OC(n4cc(F)c(=O)[nH]c4=O)CC3O)C(O)C2O)c(=O)n1` (stereo unspecified), the TGI was > 100 µM.
Still for that read-out and setting: the figure for `O=C(CN1CCCCC1)Nc1ccc2sc3ccccc3c(=O)c2n1` is 37.7 µM; for `CC(C)=CCC/C(C)=C/CC/C(C)=C/CC/C(C)=C/C=C/C=C(\C)CC/C=C(\C)CC/C=C(\C)CCC=C(C)C` it is 32.1 µM.
On the same count and under the same terms, the figure for `CCOC(=O)/C(C#N)=C\c1ccc(N(CCC(=O)O)CCC(=O)O)c(I)c1` is > 10 µM; for `CCOC(=O)P(=O)(O)c1ccc(N(C)Cc2ccccc2)cc1` it is > 100 µM; for `C=C(C)C1=CCC[C@]2(C1)N=C(OC)[C@@H](C(C)C)N=C2OC` it is > 100 µM.
Still for that read-out and setting: for `O=C(NC1=NCC(CN2CCN(c3ccccc3)CC2)O1)Nc1ccccc1` (stereo unspecified) the value was > 100 µM; for `CC1C2(C)OC(=N)C(C#N)(C(c3ccccc3)O2)C1(C#N)C#N` (stereo unspecified), 26.6 µM; for `[N-]=[N+]=Nc1ccccc1C(=O)N1C(=O)c2ccccc2C(=O)N(C(=O)c2ccccc2N=[N+]=[N-])c2ccccc21`, > 100 µM.
In the case of `O=C1NC2ON=C(c3ccccc3)C2C2ON=C(c3ccccc3)N12` (stereo unspecified), the TGI was > 100 µM.
Same read-out and setting: for `CCCCCCCCCCCCCCCCCCNC(=O)C(N)Cc1ccc(OCc2ccccc2)cn1` (stereo unspecified) the value was 32.7 µM; for `Cc1ccc2c(c1)[nH]c(=S)n2/C=C1\C(=O)Oc2ccccc2C1=O`, > 100 µM.
Same read-out and setting: for `CC(C)Cn1cnc2c(NCC(C)O)nc3ccccc3c21` (stereo unspecified) the value was > 100 µM; for `COC1(OC)c2no[n+]([O-])c2CCC1O` (stereo unspecified), > 100 µM; for `OC1(c2cccs2)c2cccc(Cl)c2C(O)(c2cccs2)c2c(Cl)cccc21` (stereo unspecified), > 100 µM.
Turning to `O=[N+]([O-])/C(C(Cl)=C(Cl)Cl)=C(\N1CCOCC1)n1nnc2ccccc21`, the TGI was 31.6 µM.
Consider `C=CCNC(=O)NC(=O)CSC1=NNC2(C(=O)N1)c1ccccc1-c1ccccc12`, for which the TGI was > 10 µM.
As for `O=c1c2c(oc3ccccc13)-c1ccccc1OC2`, the TGI was > 100 µM.
As to `C=CCOc1cccc(C2(O)c3ccccc3C3=NCCCN32)c1` (stereo unspecified), the TGI was > 86.6 µM.
Take `CCSc1[nH]c(NC(=S)NC(=O)c2ccccc2Cl)c(C(N)=O)c1C(N)=O`: the TGI is > 10 µM.
Still for that read-out and setting: for `O=C1CCCCC/C1=C\c1cccc(Cl)c1` the value was > 100 µM; for `COC(=O)C1(C(=O)OC)Cc2ccc(OC)cc2C2=C1C(=O)c1ccccc1C2=O`, 7.72 µM; for `CCc1c2c([nH]c(=S)c1C#N)CCC2`, > 100 µM.
As to `O=C1/C(=C/c2cccc(F)c2)CCCc2ccccc21`, the TGI was determined as 31.6 µM.
With `C=CCN1C(=O)/C(=C/c2ccc(OC)cc2)N=C1SC/C=C/C`, the TGI is > 100 µM.
As to `Clc1ccc(NCc2nnc(CCCCCCCCc3nnc(CNc4ccc(Cl)cc4)o3)o2)cc1`, the TGI was > 100 µM.
For the compound `O=C(ON=C1c2ccccc2C(Br)C(Br)c2ccccc21)c1cc([N+](=O)[O-])cc([N+](=O)[O-])c1` (stereo unspecified), the TGI was 47.9 µM.
Still for that read-out and setting: for `O=C1C(Cl)C2(CC(/C=C/c3ccccc3Cl)=NN2c2cccc(S(=O)(=O)O)c2)N1c1nc2ccccc2s1` (stereo unspecified) the value was 38.6 µM; for `Cc1nc2ccccc2n1COC(Cn1ccnc1)c1ccc(Cl)cc1Cl` (stereo unspecified), 39 µM.
Same read-out and setting: for `Cn1c2ccccc2c2c(-c3ccccc3)cc3c(c21)C(=O)C=CC3=O` the value was 4.07 µM; for `Nc1ncnn2c(C3OC(CO)C(O)C3O)ccc12` (stereo unspecified), 0.486 µM.
Compound `COCCOC(=O)c1c(C)n([O-])c2cc(Cl)c(Cl)cc2[n+]1=O` came in with a TGI of 45.4 µM.
Same read-out and setting: the figure for `O=C(CC(=O)N(C(=O)/C=C\c1ccccc1)c1ccc(Cl)cc1)N1N=C(c2ccccc2)C(N=Nc2cccc([N+](=O)[O-])c2)C1=O` (stereo unspecified) is > 100 µM.
Consider `Cc1cc(=O)[nH]c(-n2[nH]c(C)c(CCO)c2=O)n1`, for which the TGI was > 100 µM.
Same read-out and setting: for `CCOC(=O)c1cnc2oc3ccc(O)cc3c2c1C` the value was > 100 µM; for `COC(=O)[C@@H]1CN(C(C)=O)C(=O)N1`, > 100 µM; for `NC(N)=N/N=C/c1c(-c2ccc(Cl)cc2)nc2sccn12`, 10.9 µM.
